Data reported in ChEMBL document CHEMBL5137034, “Chemical space exploration around indolylarylsulfone scaffold led to a novel class of highly active HIV-1 NNRTIs with spiro structural features” (Eur J Med Chem, 2022).

Experiments:
[1] = tested on: Human immunodeficiency virus 1; experiment: Antiviral activity against HIV-1 harboring F227L/V106A double mutant infected in human MT4 cells assessed as reduction in virus induced cytotoxicity incubated for 5 to 7 days by MTT assay; format: functional, organism-based; conditions: Human immunodeficiency virus 1, MT4
[2] = Cytotoxicity against human MT4 cells assessed as reduction in cell viability incubated for 5 to 7 days by MTT assay; format: toxicity, cell-based; conditions: time 5-7 day
[3] = tested on: Human immunodeficiency virus 1; experiment: Antiviral activity against HIV-1 harboring K103N mutant infected in human MT4 cells assessed as reduction in virus induced cytotoxicity incubated for 5 to 7 days by MTT assay; format: functional, organism-based; conditions: Human immunodeficiency virus 1, MT4
[4] = tested on: Human immunodeficiency virus 1; experiment: Antiviral activity against HIV-1 harboring Y181C mutant infected in human MT4 cells assessed as reduction in virus induced cytotoxicity incubated for 5 to 7 days by MTT assay; format: functional, organism-based; conditions: Human immunodeficiency virus 1, MT4
[5] = tested on: Human immunodeficiency virus 1; experiment: Antiviral activity against HIV-1 harboring Y188L mutant infected in human MT4 cells assessed as reduction in virus induced cytotoxicity incubated for 5 to 7 days by MTT assay; format: functional, organism-based; conditions: Human immunodeficiency virus 1, MT4
[6] = tested on: Human immunodeficiency virus 1; experiment: Antiviral activity against HIV-1 harboring E138K mutant infected in human MT4 cells assessed as reduction in virus induced cytotoxicity incubated for 5 to 7 days by MTT assay; format: functional, organism-based; conditions: Human immunodeficiency virus 1, MT4
[7] = tested on: Human immunodeficiency virus 1; experiment: Antiviral activity against HIV-1 RES056 infected in human MT4 cells assessed as reduction in virus induced cytotoxicity incubated for 5 to 7 days by MTT assay; format: functional, organism-based; conditions: Human immunodeficiency virus 1, RES056, MT4
[8] = tested on: Human immunodeficiency virus 1; experiment: Antiviral activity against wild type HIV-1 3B infected in human MT4 cells assessed as reduction in virus induced cytotoxicity incubated for 5 to 7 days by MTT assay; format: functional, organism-based; conditions: Human immunodeficiency virus 1, 3B
[9] = Selectivity index, ratio of CC50 for cytotoxicity against human MT4 cells to EC50 for antiviral activity against wildtype HIV-1 3B infected in human MT4 cells; format: toxicity, cell-based; conditions: read-out: Ratio CC50/EC50
[10] = tested on: Human immunodeficiency virus 1; experiment: Antiviral activity against HIV-1 harboring L100I mutant infected in human MT4 cells assessed as reduction in virus induced cytotoxicity incubated for 5 to 7 days by MTT assay; format: functional, organism-based; conditions: Human immunodeficiency virus 1, MT4
[11] = target: Human immunodeficiency virus type 1 reverse transcriptase (Human immunodeficiency virus 1, UniProt Q72547); experiment: Inhibition of wild type HIV-1 reverse transcriptase assessed as reduction of biotin-dUTP incorporation into […] using ABTS as substrate incubated for 1 hrs by ELISA analysis
[12] = tested on: Human immunodeficiency virus 1; experiment: Potency index, ratio of Nevirapine EC50 to test compound EC50 for antiviral activity against wild type HIV-1 3B infected in human MT4 cells assessed as reduction in virus induced cytotoxicity incubated for 5 to 7 days by MTT assay; format: functional; conditions: time 5-7 day
[13] = tested on: Human immunodeficiency virus 1; experiment: Potency index, ratio of Zidovudine EC50 to test compound EC50 for antiviral activity against wild type HIV-1 3B infected in human MT4 cells assessed as reduction in virus induced cytotoxicity incubated for 5 to 7 days by MTT assay; format: functional; conditions: time 5-7 day
[14] = tested on: Human immunodeficiency virus 1; experiment: Potency index, ratio of 5-chloro-3-(m-tolylsulfonyl)-1H-indole-2-carboxamide EC50 to test compound EC50 for antiviral activity against HIV-1 harboring E138K mutant infected in human MT4 cells assessed as reduction in virus induced cytotoxicity incubated for 5 to 7 days by MTT assay; format: functional; conditions: time 5-7 day

Structure (SMILES)	EC50 [1] [nM]	CC50 [2] [nM]	EC50 [3] [nM]	EC50 [4] [nM]	EC50 [5] [nM]	EC50 [6] [nM]	EC50 [7] [nM]	EC50 [8] [nM]	selectivity ratio [9]	EC50 [10] [nM]	IC50 [11] [nM]	Ratio EC50 [12]	Ratio EC50 [13]	Ratio EC50 [14]
Cc1ccnc2c1NC(=O)c1cccnc1N2C1CC1 [NEVIRAPINE]	3540	> 15000	3550	3780	4420	158	2220	–	–	–	–	–	–	–
Cc1cc(C)cc(S(=O)(=O)c2c(C(N)=O)[nH]c3ccc(Cl)cc23)c1	47	–	17	39	1100	900	1800	4.1	2160	15	15	–	–	–
Cc1cc(C)cc(S(=O)(=O)c2c(C(=O)NC3CC4(CCN(Cc5n[nH]c(=O)n5C)C4)C3)[nH]c3ccc(Cl)cc23)c1 (centres undefined)	270	> 214000	140	210	1460	45	133000	9.9	> 21600	58	–	16	2	–
Cc1cc(C#N)cc(C)c1Oc1nc(Nc2ccc(C#N)cc2)nc(N)c1Br [ETRAVIRINE]	16	> 4590	–	–	15	–	35	–	> 1570	9	–	–	–	–
O=C1Nc2ccc(Cl)cc2[C@@](C#CC2CC2)(C(F)(F)F)O1 [EFAVIRENZ]	–	> 6330	97	–	89	[…]	105	3.2	–	–	–	–	–	–
Cc1cc(C)cc(S(=O)(=O)c2c(C(=O)NC3CC4(CCN(S(C)(=O)=O)CC4)C3)[nH]c3ccc(Cl)cc23)c1	1290	> 222000	440	970	> 191000	100	> 222000	21	> 10300	250	–	–	–	–
Cc1cc(C)cc(S(=O)(=O)c2c(C(=O)NC3CC4(CCN(C(=O)OC(C)(C)C)CC4)C3)[nH]c3ccc(Cl)cc23)c1	–	133000	–	–	–	–	–	190	685	–	–	–	–	–
Cc1cc(C)cc(S(=O)(=O)c2c(C(=O)NC3CC4(CCN(S(C)(=O)=O)C4)C3)[nH]c3ccc(Cl)cc23)c1 (centres undefined)	600	205000	330	330	1930	69	> 205000	12	16500	110	–	–	–	–
Cc1cc(C)cc(S(=O)(=O)c2c(C(=O)NC3CC4(C3)CN(Cc3n[nH]c(=O)n3C)C4)[nH]c3ccc(Cl)cc23)c1	230	65600	56	250	560	40	7450	5.3	12400	47	170	30	4	23
Cc1cc(C)cc(S(=O)(=O)c2c(C(=O)NC3CC4(CCN(CC(N)=O)C4)C3)[nH]c3ccc(Cl)cc23)c1 (centres undefined)	420	3700	190	420	1420	72	> 3700	11	328	130	130	–	–	–
Cc1cc(C)cc(S(=O)(=O)c2c(C(=O)NC3CC4(CCNC4)C3)[nH]c3ccc(Cl)cc23)c1 (centres undefined)	–	25200	–	–	–	–	–	38	664	–	–	–	–	–
Cc1cn([C@H]2C[C@H](N=[N+]=[N-])[C@@H](CO)O2)c(=O)[nH]c1=O [ZIDOVUDINE]	4	> 7480	–	5	4	7	10	21	> 352	5	–	–	–	–
Cc1cc(C)cc(S(=O)(=O)c2c(C(=O)NC3CC4(C3)CN(S(C)(=O)=O)C4)[nH]c3ccc(Cl)cc23)c1	410	> 233000	210	470	1760	110	≥ 12800	11	> 20900	120	120	–	–	–
Cc1cc(C)cc(S(=O)(=O)c2c(C(=O)NC3CC4(CCNCC4)C3)[nH]c3ccc(Cl)cc23)c1	–	24200	–	–	–	–	–	49	493	–	–	–	–	–
Cc1cc(C)cc(S(=O)(=O)c2c(C(=O)NC3CC4(CCN(Cc5n[nH]c(=O)n5C)CC4)C3)[nH]c3ccc(Cl)cc23)c1	1420	178000	570	940	8070	170	> 178000	22	8350	270	–	–	–	–
Cc1cc(C)cc(S(=O)(=O)c2c(C(=O)NC3CC4(CNC4)C3)[nH]c3ccc(Cl)cc23)c1	–	28600	–	–	–	–	–	41	676	–	–	–	–	–
Cc1cc(C)cc(S(=O)(=O)c2c(C(=O)NC3CC4(C3)CN(C(=O)OC(C)(C)C)C4)[nH]c3ccc(Cl)cc23)c1	–	> 224000	–	–	–	–	–	70	> 3220	–	–	–	–	–
Cc1cc(C)cc(S(=O)(=O)c2c(C(=O)NC3CC4(CCN(CC(N)=O)CC4)C3)[nH]c3ccc(Cl)cc23)c1	480	3610	150	850	1290	200	> 3610	9.8	367	180	–	–	–	–
Cc1cc(C)cc(S(=O)(=O)c2c(C(=O)NC3CC4(CCN(C(=O)OC(C)(C)C)C4)C3)[nH]c3ccc(Cl)cc23)c1 (centres undefined)	–	171000	–	–	–	–	–	120	1470	–	–	–	–	–
Cc1cc(C)cc(S(=O)(=O)c2c(C(=O)NC3CC4(C3)CN(CC(N)=O)C4)[nH]c3ccc(Cl)cc23)c1	500	6080	140	390	1280	74	≥ 5770	11	526	100	–	–	–	–
